Test results as given in PMC9458978, “Design, synthesis and biological evaluation of novel biphenylsulfonamide derivatives as selective AT2 receptor antagonists” (Frontiers in Chemistry, 2022).
“Also recorded” adds a separate entry of the source. Read-outs that look alike come from different tables or passages of the source.

Tests used:
[1] = target: T1, AT1 receptor (Rattus norvegicus, UniProt P25095); experiment: Rat liver membrane AT1 receptor binding assay ([125I]-Ang II displacement); conditions: displacement of [125I]-Ang II, rat liver membranes; means ± SE, triplicate; read-out: Ki (nM) AT1R
T1 construct: Rat liver membranes were prepared according to the method of Dudley et al; from tissue; host or cells: rat liver membranes
T1 sequence (P25095 whole entry): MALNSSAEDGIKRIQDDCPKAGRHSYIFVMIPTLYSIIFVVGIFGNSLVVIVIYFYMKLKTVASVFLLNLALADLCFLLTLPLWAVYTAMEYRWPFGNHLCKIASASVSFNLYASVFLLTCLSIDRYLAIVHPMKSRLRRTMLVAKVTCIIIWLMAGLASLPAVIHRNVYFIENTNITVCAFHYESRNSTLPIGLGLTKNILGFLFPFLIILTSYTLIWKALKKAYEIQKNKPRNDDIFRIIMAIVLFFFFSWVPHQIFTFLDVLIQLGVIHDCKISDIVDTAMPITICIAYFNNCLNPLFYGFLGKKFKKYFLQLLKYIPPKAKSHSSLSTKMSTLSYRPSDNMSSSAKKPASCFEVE
Procedure: The target compounds were evaluated for AT1 receptor binding affinity by displacement of [^125I]-Ang II from the AT1 receptor in rat liver membranes. The radio-iodinated AT2 receptor selective ligand [^125I]-CGP42112 was used to study AT2 receptor binding affinity in HEK-293 cells (HEK293-hAT2R) ([Dudley et al., 1990]; [Whitebread et al., 1991]). All of above methods were widely accepted and used to evaluate the binding activity of AT1 and AT2 receptors.
Rat liver membranes were prepared according to the method of Dudley et al ([Dudley et al., 1990]). After HEK-293 cells were transfected with the AT2 receptor, a lysis buffer was used to separate the cell membrane of HEK-293 cells ([Grieger et al., 2016]), using 27-G Resuspend. The lysis solution was mixed and centrifuged at 12,000 g for 10 min at 4°C. Details are shown in the Supplementary Material.
3. Radioligand binding assay steps
3.1 Rat Liver Membrane AT1 Receptor Binding Assay.
Rat liver membranes were prepared according to the method of Dudley et al[1].
Binding of [125I]-Ang II to membranes was conducted in a final volume of 0.5 mL containing 50 mM Tris-HCl (pH 7.4), 100 mM NaCl, 10 mM MgCl2, 1 mM EDTA, 0.025% bacitracin, 0.2% BSA (bovine serum albumin), liver homogenate corresponding to 5 mg of the original tissue weight, [125I]-Ang II (80000-85 000 cpm, 0.03 nM), and variable concentrations of test substance. Samples were incubated at 25 ℃ for 2 h, and binding was terminated by filtration through Whatman GF/B glass-fiber filter sheets, which had been presoaked overnight with 0.3 % polyethylamine, using a Brandel cell harvester. The filterswere washed with 3×3 mL of Tris-HCl (pH 7.4) and transferred to tubes. The radioactivity was measured in a γ-counter. The characteristics of the Ang II binding AT1receptor was determined by using six different concentrations (0.03-5 nmol/L) of the labeled [125I]-Ang II.
Nonspecific binding was determined in the presence of 1 µM Ang II.The specific binding was determined by subtracting the nonspecific binding from the total bound [125I]-Ang II.The apparent dissociation constant Ki values were calculated from IC50 values using the Cheng-Prusoff equation. […]
(§1) one-site fit.All determinations were performed in triplicate. […]

[2] = target: T2, AT2 receptor (Homo sapiens, UniProt P50052); experiment: HEK-293 cell AT2 receptor binding assay ([125I]-CGP42112 displacement, HEK293-hAT2R)
T2 construct: expressed in transfected cells; host or cells: HEK-293
T2 sequence (P50052 1-363): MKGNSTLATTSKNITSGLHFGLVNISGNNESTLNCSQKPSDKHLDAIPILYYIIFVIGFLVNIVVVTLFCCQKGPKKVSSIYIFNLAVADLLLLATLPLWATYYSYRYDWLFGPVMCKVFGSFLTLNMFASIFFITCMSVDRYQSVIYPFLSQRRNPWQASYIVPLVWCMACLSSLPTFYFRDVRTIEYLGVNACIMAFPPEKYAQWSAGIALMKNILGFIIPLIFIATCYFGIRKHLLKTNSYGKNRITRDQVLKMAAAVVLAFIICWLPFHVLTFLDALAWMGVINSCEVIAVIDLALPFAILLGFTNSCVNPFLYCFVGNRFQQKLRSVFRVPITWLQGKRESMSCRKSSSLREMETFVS
Procedure: All of above methods were widely accepted and used to evaluate the binding activity of AT1 and AT2 receptors.
The lysis solution was mixed and centrifuged at 12,000 g for 10 min at 4°C. Details are shown in the Supplementary Material.
After HEK-293 cells were transfected with AT2 receptor, lysis buffer (150 mM NaCl, 0.1% Triton X-100, 50 mM Tris-HCl, 1 mM EDTA, protease inhibitor) was used to separate the cell membrane of HEK-293 cells[2],using 27-G Resuspend and mix the lysis solution, and centrifuge at 12,000 g for 10 minutes at 4 °C. The supernatant was collected and centrifuged for a further 60 minutes. The precipitated membrane extracts were buffered (150 mM NaCl, 10 mM MgCl2, 0.5 % SDS, 1 % Triton X-100, 50 mM Tris-Cl, 1 mM EDTA, protease inhibitor ) for resuspension. […]
mL containing 50 mM Tris-HCl (pH 7.4), 100 mM NaCl, 10 mM MgCl2, 1 mM […]
cpm, 0.03 nM), and variable concentrations of test substance. Samples were incubated at 25 ℃ for 2 h, and binding was terminated by filtration through Whatman GF/B glass-fiber filter sheets, which had been presoaked overnight with 0.3 % polyethylamine, using a Brandel cell harvester. The filterswere washed with 3×3 mL of Tris-HCl (pH 7.4) and transferred to tubes. The radioactivity was measured in a γ-counter. The characteristics of the Ang II binding AT1 receptor was determined by […]
Nonspecific binding was determined in the presence of 1 µM Ang II.The specific binding was determined by subtracting the nonspecific binding from the total bound The apparent dissociation constant Ki values were calculated from IC50 values using the Cheng-Prusoff equation. […]
as §1

[3] = tested on: AT2 receptor; experiment: Neurite outgrowth assay with NG108-15 cells (AT2 receptor function assay)
Procedure: The ratio of cell neurite outgrowth was used to evaluate, and the details are shown in the Supplementary Material.
NG108-15 cells (China Center for Type Culture Collection CCTCC) were used to study the in vitro morphological effects. In their undifferentiated state, neuroblastoma × glioma hybrid NG108-15 cells havea rounded shape and divide actively. The cells were cultured from passage 18–25 in Dulbecco’s modified Eagle’s medium (DMEM, Gibco BRL, Thermo Fisher Technology (China) Co., Ltd, China) with 10% fetal bovine serum (FBS, Gibco), HAT supplement and 50 mg L^−1 gentamycin at 37°C in 75 cm^2 Nunclon Delta flasks in a humidified atmosphere of 95% air and 5% CO2, as previously described ([Buisson et al., 1992]). Subcultures were performed at subconfluency. Under these conditions, cells express mainly the AT2 receptor subtype ([Whitebread et al., 1991]). Cells were treated during 3 days, once a day (first treatment 24 h after plating), and micrographs were taken on the fourth day. The details of experimental grouping and administration method are shown in the Supplementary Material. […]
4. NG108-15 cell experiment steps […]
peptidic AT2 receptor agonist CGP-42112A induces neurite outgrowth. The […]
plated as described in the Experimental Section, and adequate test concentrations for […]
each compound were determined by testing a dilution series of each compound […]
ranging from 1 pM to 1 uM.
The chemicals used in the present study were obtained from the following sources: Dulbecco’s modified Eagle’s medium (DMEM), heat-inactivated fetal bovine serum (FBS), HAT supplement (hypoxanthine, aminopterin, thymidine), gentamycin from Gibco BRL (Burlington, Ontario, Canada), and Ang II from MedChemExpress

| melting point [°C] | Ki [1] [nM] | Ki [2] [nM] | Ki ([2]; displacement of [125I]-CGP42112, HEK293-hAT2R membranes, means ± SE, triplicate, read-out: Ki (nM) AT2R) [nM] | Compound | Function (AT2 receptor agonist / antagonist) ([3]; 3-day treatment, 10 or 100 nM, with or without PD-123,319 (10 uM) or Ang II) | evidence of cell death ([3]; dilution series 1 pM to 1 uM, seen only at the highest concentration) | morphology compared to untreated cells ([3]; PD-123,319 alone) | ratio of cell neurite outgrowth (cells with neurites as percentage of total cells) ([3]; 3-day treatment, substance alone (Ang II 100 nM; compounds 10 or 100 nM)) [%] |
| --- | --- | --- | --- | --- | --- | --- | --- | --- |
| 138.4 to 139.7 | 629.4 ± 1.1 | 873.7 ± 1.1 | – | CCCCC(=O)NS(=O)(=O)c1ccc(CC(C)C)cc1-c1cccc(Cn2cncn2)c1 [8a, N-((3'-((1H-1,2,4-triazol-1-yl)methyl)-5-isobutyl-[1,1′-biphenyl]-2-yl)sulfonyl)pentanamide] | – | – | – | – |
| 148.1 to 149.3 | 846.1 ± 1.17 | 273.5 ± 1.2 | – | CCCCOC(=O)NS(=O)(=O)c1ccc(CC(C)C)cc1-c1cccc(Cn2cncn2)c1 [8b, ((3'-((1H-1,2,4-triazol-1-yl)methyl)-5-isobutyl-[1,1′-biphenyl]-2-yl)sulfonyl)carbamae] | – | – | – | – |
| 145.3 to 146.2 | 1037 ± 1.1 | 322 ± 1.24 | – | CC(C)COC(=O)NS(=O)(=O)c1ccc(CC(C)C)cc1-c1cccc(Cn2cncn2)c1 [8c, Isobutyl((3'-((1H-1,2,4-triazol-1-yl)methyl)-5-isobutyl-[1,1′-biphenyl]-2-yl)sulfonyl)carbamate] | – | – | – | – |
| 141.8 to 142.4 | 505.2 ± 1.4 | 753.9 ± 1.1 | – | CCCCC(=O)NS(=O)(=O)c1ccc(CCCC)cc1-c1cccc(Cn2cncn2)c1 [8e, N-((3'-((1H-1,2,4-triazol-1-yl)methyl)-5-butyl-[1,1′-biphenyl]-2-yl)sulfonyl)pentanamide] | – | – | – | – |
| 150.1 to 151.4 | 1425 ± 1.12 | 252.7 ± 1.2 | – | CCCCOC(=O)NS(=O)(=O)c1ccc(CCCC)cc1-c1cccc(Cn2cncn2)c1 [8f, Butyl((3'-((1H-1,2,4-triazol-1-yl)methyl)-5-butyl-[1,1′-biphenyl]-2-yl)sulfonyl)carbamate] | – | – | – | – |
| 168.4 to 169.1 | 945.5 ± 1.22 | 347.5 ± 1.36 | – | CCCCc1ccc(S(=O)(=O)NC(=O)OCC(C)C)c(-c2cccc(Cn3cncn3)c2)c1 [8g, Isobutyl((3'-((1H-1,2,4-triazol-1-yl)methyl)-5-butyl-[1,1′-biphenyl]-2-yl)sulfonyl)carbamate] | – | – | – | – |
| 125.8 to 126.7 | 1264 ± 1.14 | 1152 ± 1.1 | – | CCCCC(=O)NS(=O)(=O)c1ccc(CC(C)C)cc1-c1cccc(Cn2cccn2)c1 [9a, N-((3'-((1H-pyrazol-1-yl)methyl)-5-isobutyl-[1,1′-biphenyl]-2-yl)sulfonyl)pentanamide] | – | – | – | – |
| 129.1 to 131.4 | 989.7 ± 1.08 | – | 1027 ± 1.15 | CCCCOC(=O)NS(=O)(=O)c1ccc(CC(C)C)cc1-c1cccc(Cn2cccn2)c1 [9b, Butyl((3'-((1H-pyrazol-1-yl)methyl)-5-isobutyl-[1,1′-biphenyl]-2-yl)sulfonyl)carbamate] | – | – | – | – |
| 149.6 to 151.3 | 1027 ± 1.08 | 916.2 ± 1.3 | – | CC(C)COC(=O)NS(=O)(=O)c1ccc(CC(C)C)cc1-c1cccc(Cn2cccn2)c1 [9c, Isobutyl((3'-((1H-pyrazol-1-yl)methyl)-5-isobutyl-[1,1′-biphenyl]-2-yl)sulfonyl)carbamate] | – | – | – | – |
| 146.6 to 147.5 | 1549 ± 1.11 | 74.1 ± 1.16 | – | CC(C)Cc1ccc(S(=O)(=O)NC(=O)OC(C)C)c(-c2cccc(Cn3cccn3)c2)c1 [9d, Isopropyl((3'-((1H-pyrazol-1-yl)methyl)-5-isobutyl-[1,1′-biphenyl]-2-yl)sulfonyl)carbamate] | – | – | – | – |
| 140.1 to 141.3 | 363.9 ± 1.28 | 992.9 ± 1.26 | – | CCCCC(=O)NS(=O)(=O)c1ccc(CCCC)cc1-c1cccc(Cn2cccn2)c1 [9e, N-((3'-((1H-pyrazol-1-yl)methyl)-5-butyl-[1,1′-biphenyl]-2-yl)sulfonyl)pentanamide] | – | – | – | – |
| 142.5 to 143.1 | 1310 ± 1.11 | 467.9 ± 1.19 | – | CCCCOC(=O)NS(=O)(=O)c1ccc(CCCC)cc1-c1cccc(Cn2cccn2)c1 [9f, Butyl((3'-((1H-pyrazol-1-yl)methyl)-5-butyl-[1,1′-biphenyl]-2-yl)sulfonyl)carbamate] | – | – | – | – |
| 149.3 to 151.2 | 1212 ± 1.12 | 513.3 ± 1.18 | – | CCCCc1ccc(S(=O)(=O)NC(=O)OCC(C)C)c(-c2cccc(Cn3cccn3)c2)c1 [9g, Isobutyl((3'-((1H-pyrazol-1-yl)methyl)-5-butyl-[1,1′-biphenyl]-2-yl)sulfonyl)carbamate] | – | – | – | – |
| – | – | – | – | Cc1cc(Cn2cnc3c2C[C@@H](C(=O)O)N(C(=O)C(c2ccccc2)c2ccccc2)C3)ccc1N(C)C [PD-123,319, reference compound] | – | – | did not alter | – |
| – | – | – | – | Ang II [reference compound] | – | – | – | ~20 |

| Compound | melting point [°C] | Ki [1] [nM] | Ki [2] [nM] | Ki ([2]; displacement of [125I]-CGP42112, HEK293-hAT2R membranes, means ± SE, triplicate, read-out: Ki (nM) AT2R) [nM] | Function (AT2 receptor agonist / antagonist) ([3]; 3-day treatment, 10 or 100 nM, with or without PD-123,319 (10 uM) or Ang II) | evidence of cell death ([3]; dilution series 1 pM to 1 uM, seen only at the highest concentration) | morphology compared to untreated cells ([3]; PD-123,319 alone) | ratio of cell neurite outgrowth (cells with neurites as percentage of total cells) ([3]; 3-day treatment, substance alone (Ang II 100 nM; compounds 10 or 100 nM)) [%] |
| --- | --- | --- | --- | --- | --- | --- | --- | --- |
| CC(C)Cc1ccc(S(=O)(=O)NC(=O)OC(C)C)c(-c2cccc(Cn3cncn3)c2)c1 [8d, Isopropyl((3’-((1H-1,2,4-triazol-1-yl)methyl)-5-isobutyl-[1,1′-biphenyl]-2-yl)sulfonyl)carbamate] | – | 1786 ± 1.37 | 116 ± 1.18 | – | antagonistic activity; also recorded: antagonist activity | evidence of cell death | – | – |
